Legend:
[1] = test system: P-gp (MDR1); assay: MDCK-MDR1 assay (permeability / Pgp efflux); format: in vitro ADME; conditions: dog, Papp BA/Papp AB, Pgp substrate when ≥2
Experimental: The permeability of the test compounds was assessed in MDCK-MDR1 cells that were cultured to confluency (4-6 days) in a 96 transwell plate. Test compounds were diluted with the transport buffer (HBSS+1% BSA) to a concentration of 0.5 μM and applied to the apical or basolateral side of the cell monolayer. Permeation of the test compounds from A to B direction or B to A direction was determined in triplicate over a 60-minute incubation time at 37° C. and 5% CO2 with a relative humidity of 95%. Test compounds were quantified by LC-MS/MS analysis based on the peaks area ratios of analyte/IS in both the receiver and donor wells of the transwell plate.
The apparent permeability coefficient Papp (cm/s) was calculated using the equation: Papp=(dCr/dt)×Vr/(A×C0) Where dCr/dt is the cumulative concentration of compound in the receiver chamber as a function of time (μM/s); Vr is the solution volume in the receiver chamber (0.05 mL on the apical side; 0.25 mL on the basolateral side); A is the surface area for the transport, i.e. 0.0804 cm^2 for the area of the monolayer; C0 is the initial concentration in the donor chamber (μM).
Compounds are classified Pgp substrates when efflux ratio (Papp BA/Papp AB) is ≥2.

[2] = target: T1, BACE1 (Homo sapiens (Human), UniProt P56817); assay: BACE1 binding assay (SPA-based, radioligand); conditions: pH 4.5, Ki=IC50/(1+L/Kd)
T1 sequence (P56817 46-501): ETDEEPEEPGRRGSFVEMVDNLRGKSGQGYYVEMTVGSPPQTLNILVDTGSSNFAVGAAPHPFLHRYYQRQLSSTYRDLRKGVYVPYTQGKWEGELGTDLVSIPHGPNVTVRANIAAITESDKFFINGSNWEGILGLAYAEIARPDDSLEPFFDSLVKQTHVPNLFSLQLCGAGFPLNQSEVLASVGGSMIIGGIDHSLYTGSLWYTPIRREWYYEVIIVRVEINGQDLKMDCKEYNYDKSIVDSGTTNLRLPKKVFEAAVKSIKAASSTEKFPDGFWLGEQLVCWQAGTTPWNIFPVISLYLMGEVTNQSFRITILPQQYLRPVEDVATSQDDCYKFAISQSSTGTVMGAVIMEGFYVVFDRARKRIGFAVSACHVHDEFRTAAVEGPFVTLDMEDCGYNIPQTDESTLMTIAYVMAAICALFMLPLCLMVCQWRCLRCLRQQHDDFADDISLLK
Experimental: The binding assay was performed as SPA-based assay using a biotinylated form of human BACE1 recombinantly expressed and subsequently purified from Freestyle HEK293 cells. The binding assay was run in a 50 mM sodium acetate buffer, pH 4.5 containing 50 mM NaCl and 0.03% Tween-20 in white clear bottom 384 plates (Corning #3653). 10 nM (final concentration) radioligand ([^3H]-N-((1S,2R)-1-benzyl-3-cyclopropylamino-2-hydroxy-propyl)-5-(methanesulfonyl-methyl-amino)-N-((R)-1-phenyl-ethyl)-isophthalamide) (TRQ11569 purchased from GE Healthcare) was mixed with test compound at a given concentration, 6 nM (final concentration) human BACE1 and 25 μg Streptavidin coated PVT core SPA beads (RPNQ0007, GE Healthcare Life Sciences) in a total volume of 40 μl. Several concentrations of each test compound were tested in the assay for IC50 determination. The plates were incubated for one hour at room temperature and counted in a Wallac Trilux counter. Total and non-specific binding were determined using buffer and 1 μM (final concentration) of the high affinity BACE1 reference inhibitor (S)-6-[3-chloro-5-(5-prop-1-ynyl-pyridin-3-yl)-thiophen-2-yl]-2-imino-3,6-dimethyl-tetrahydro-pyrimidin-4-one, respectively. For each test compound, a IC50 value (the concentration mediating 50% inhibition of the specific binding of the radioligand) was determined from concentration-response curve and used to calculate the Ki from the equation Ki=IC50/(1+L/Kd), where L and Kd are the final concentration of the radioligand used in the assay and the dissociation constant of the radioligand, respectively. The Kd of the radioligand was determined from saturation binding experiments.

[3] = target: T1, BACE1; assay: BACE1 efficacy assay (FRET-based, commercial BACE1 kit); format: biochemical; conditions: 10 μM test compound
Experimental: The efficacy assay was performed as a FRET-based assay using a commercially available BACE1 kit (Life Technologies, P2985). 2 μl test compound at 10 μM (final concentration) and 15 μl BACE1 enzyme from the kit (final concentration 3 nM) were preincubated for 15 minutes at room temperature before addition of 15 μl of substrate from the kit (250 nM final concentration) and incubated for additional 90 minutes at room temperature. The assay plate was subsequently read in a Pherastar (Ex540/Em590). The enzyme activity observed in presence of test compound were normalized to the enzyme activity observed in presence of buffer and 10 μM (final concentration) of the high affinity BACE1 reference inhibitor (S)-6-[3-Chloro-5-(5-prop-1-ynyl-pyridin-3-yl)-thiophen-2-yl]-2-imino-3,6-dimethyl-tetra-hydropyrimidin-4-one, respectively. The efficacy of the test compounds was evaluated at 10 μM (final concentration) and defined as the percent inhibition of the enzyme activity using the equation % inhibition=100%−normalized enzyme activity in percent.

| SMILES | efflux ratio at 60 min, 0.5 μM [1] | Ki [2] | inhibition at 10 µM [3] |
| --- | --- | --- | --- |
| Cc1nc(C(=O)Nc2ccc(F)c([C@@]3(CF)N=C(N)CCC3(F)F)c2)co1 [Compound 7, (S)-N-(3-(6-amino-3,3-difluoro-2-(fluoromethyl)-2,3,4,5-tetrahydropyridin-2-yl)-4-fluoro-phenyl)-2-methyloxazole-4-carboxamide] | 4.59 | 32 nM | 96% |
| NC1=N[C@](CF)(c2cc(NC(=O)c3ccc(F)cn3)cc(F)c2F)C(F)(F)CC1 [Compound 12, (S)-N-(3-(6-amino-3,3-difluoro-2-(fluoromethyl)-2,3,4,5-tetrahydropyridin-2-yl)-4,5-difluorophenyl)-5-fluoropicolinamide] | 1.11 | 84 nM | 101% |
| Cc1nc(C(=O)Nc2cc(F)c(F)c([C@@]3(CF)N=C(N)CCC3(F)F)c2)co1 [Compound 10, (S)-N-(3-(6-amino-3,3-difluoro-2-(fluoromethyl)-2,3,4,5-tetrahydropyridin-2-yl)-4,5-difluorophenyl)-2-methyloxazole-4-carboxamide] | 3.57 | 55 nM | 102% |
| N#Cc1ccc(C(=O)Nc2cc(F)c(F)c([C@@]3(CF)N=C(N)CCC3(F)F)c2)nc1 [Compound 14, (S)-N-(3-(6-amino-3,3-difluoro-2-(fluoromethyl)-2,3,4,5-tetrahydropyridin-2-yl)-4,5-difluorophenyl)-5-cyanopicolinamide] | 1.81 | 23 nM | 103% |
| COc1cnc(C(=O)Nc2ccc(F)c([C@@]3(CF)N=C(N)CCC3(F)F)c2)nc1 [Compound 8, (S)-N-(3-(6-amino-3,3-difluoro-2-(fluoromethyl)-2,3,4,5-tetrahydropyridin-2-yl)-4-fluoro-phenyl)-5-methoxypyrimidine-2-carboxamide] | 23.4 | 29 nM | – |
| [2H]C([2H])([2H])Oc1ccc(C(=O)Nc2ccc(F)c([C@@]3(CF)N=C(N)CCC3(F)F)c2)nc1 [Compound 18, (S)-N-(3-(6-amino-3,3-difluoro-2-(fluoromethyl)-2,3,4,5-tetrahydropyridin-2-yl)-4-fluorophenyl)-5-(methoxy-d3)picolinamide] | – | 25 nM | 109% |
| NC1=N[C@](CF)(c2cc(NC(=O)c3ccc(F)cn3)ccc2F)C(F)(F)CC1 [Compound 2, (S)-N-(3-(6-amino-3,3-difluoro-2-(fluoromethyl)-2,3,4,5-tetrahydropyridin-2-yl)-4-fluoro-phenyl)-5-fluoropicolinamide] | 2.6 | 22 nM | 104% |
| NC1=N[C@](CF)(c2cc(NC(=O)c3cnc(C(F)F)cn3)ccc2F)C(F)(F)CC1 [Compound 9, (S)-N-(3-(6-amino-3,3-difluoro-2-(fluoromethyl)-2,3,4,5-tetrahydropyridin-2-yl)-4-fluoro-phenyl)-5-(difluoromethyl)pyrazine-2-carboxamide] | 1.76 | 30 nM | 103% |
| NC1=N[C@](CF)(c2cc(NC(=O)c3ccn(C(F)F)n3)ccc2F)C(F)(F)CC1 [Compound 4, (S)-N-(3-(6-amino-3,3-difluoro-2-(fluoromethyl)-2,3,4,5-tetrahydropyridin-2-yl)-4-fluorophenyl)-1-(difluoromethyl)-1H-pyrazole-3-carboxamide] | 13.8 | 25 nM | 104% |

The next lines start with the values.

| efflux ratio at 60 min, 0.5 μM [1] | Ki [2] | inhibition at 10 µM [3] | SMILES |
| --- | --- | --- | --- |
| 2.07 | 20 nM | 103% | N#Cc1ccc(C(=O)Nc2ccc(F)c([C@@]3(CF)N=C(N)CCC3(F)F)c2)nc1 [Compound 6, (S)-N-(3-(6-amino-3,3-difluoro-2-(fluoromethyl)-2,3,4,5-tetrahydropyridin-2-yl)-4-fluoro-phenyl)-5-cyanopicolinamide] |
| 2.84 | 13 nM | 104% | COc1cnc(C(=O)Nc2ccc(F)c([C@@]3(CF)N=C(N)CCC3(F)F)c2)cn1 [Compound 3, (S)-N-(3-(6-amino-3,3-difluoro-2-(fluoromethyl)-2,3,4,5-tetrahydropyridin-2-yl)-4-fluoro-phenyl)-5-methoxypyrazine-2-carboxamide] |
| 1.1 | 21 nM | 106% | [2H]C([2H])([2H])Oc1ccc(C(=O)Nc2cc(F)c(F)c([C@@]3(CF)N=C(N)CCC3(F)F)c2)nc1 [Compound 16, (S)-N-(3-(6-amino-3,3-difluoro-2-(fluoromethyl)-2,3,4,5-tetrahydropyridin-2-yl)-4,5-difluorophenyl)-5-(methoxy-d3)picolinamide] |
| 1.11 | 22 nM | 103% | NC1=N[C@](CF)(c2cc(NC(=O)c3ccc(Cl)cn3)cc(F)c2F)C(F)(F)CC1 [Compound 13, (S)-N-(3-(6-amino-3,3-difluoro-2-(fluoromethyl)-2,3,4,5-tetrahydropyridin-2-yl)-4,5-difluorophenyl)-5-chloropicolinamide] |
| 7.31 | 15 nM | 102% | NC1=N[C@](CF)(c2cc(NC(=O)c3coc(C(F)F)n3)ccc2F)C(F)(F)CC1 [Compound 5, (S)-N-(3-(6-amino-3,3-difluoro-2-(fluoromethyl)-2,3,4,5-tetrahydropyridin-2-yl)-4-fluoro-phenyl)-2-(difluoromethyl)oxazole-4-carboxamide] |
| 1.59 | 11 nM | – | NC1=N[C@](CF)(c2cc(NC(=O)c3ccc(Br)cn3)ccc2F)C(F)(F)CC1 [Compound 19, (S)-N-(3-(6-amino-3,3-difluoro-2-(fluoromethyl)-2,3,4,5-tetrahydropyridin-2-yl)-4-fluorophenyl)-5-bromopicolinamide] |
| 2.21 | 16 nM | 111% | Cc1cc(C#N)cnc1C(=O)Nc1cc(F)c(F)c([C@@]2(CF)N=C(N)CCC2(F)F)c1 [Compound 17, (S)-N-(3-(6-amino-3,3-difluoro-2-(fluoromethyl)-2,3,4,5-tetrahydropyridin-2-yl)-4,5-difluorophenyl)-5-cyano-3-methylpicolinamide] |
| 1.75 | 5.7 nM | 104% | NC1=N[C@](CF)(c2cc(NC(=O)c3ccc(Cl)cn3)ccc2F)C(F)(F)CC1 [Compound 1, (S)-N-(3-(6-amino-3,3-difluoro-2-(fluoromethyl)-2,3,4,5-tetrahydropyridin-2-yl)-4-fluorophenyl)-5-chloropicolinamide] |

From patent US10058540B2, “2-amino-5,5-difluoro-6-(fluoromethyl)-6-phenyl-3,4,5,6-tetrahydropyridines as BACE1 inhibitors” (H. Lundbeck A/S, priority 2014, dated 2018)
